Broadly, the Km is the concentration of substrate that gives half-maximal velocity.

Where a name gives a salt, the structure may show the parent alone. Read-outs that look alike come from different tables or passages of the source.

Results on 5 molecules are retold here after PMC4686663, “Ultrahigh-throughput discovery of promiscuous enzymes by picodroplet functional metagenomics” (Nature Communications, 2015).

Series [1] has as its target T1, P40 (uncultured organism, UniProt A0A141FA90).
T1 construct: ORF p40 recloned in modified pRSFDuet (NcoI-XhoI), E. coli BL21(DE3); no tag stated
Kind of series: sulfate transfer kinetics. The format is biochemical. Particulars: acceptor phenolate; ping-pong mechanism.

In series [2] the test system is T2, P85.
T2 construct: N-terminal Strep-tag, pASKIBA5plus (BsaI), E. coli BL21(DE3); Strep-Tactin and gel filtration
Kind of series: 4-nitrophenolate release, […] nm, initial rates. The format is biochemical. Particulars: 100 mM MOPS-NaOH pH 8.0, 150 mM NaCl, 25 °C.

Series [3] deals with P84 (uncultured organism, UniProt A0A141FA95). The experiment in a line: 4-nitrophenolate release, […] nm, initial rates. As to conditions: 100 mM MOPS-NaOH pH 8.0, 150 mM NaCl, 25 °C.
P84, sequence (A0A141FA95 entry or part of it): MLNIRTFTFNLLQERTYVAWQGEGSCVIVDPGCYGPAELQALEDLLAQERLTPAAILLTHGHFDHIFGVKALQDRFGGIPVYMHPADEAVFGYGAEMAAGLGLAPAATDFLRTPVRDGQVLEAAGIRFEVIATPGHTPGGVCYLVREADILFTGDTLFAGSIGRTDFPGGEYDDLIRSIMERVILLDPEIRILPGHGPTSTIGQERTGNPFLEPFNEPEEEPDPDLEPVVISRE
Series [4] concerns the target T3, P83 (uncultured organism, UniProt A0A141FA94).
T3 construct: N-terminal Strep-tag, pASKIBA5plus (BsaI), E. coli BL21(DE3); Strep-Tactin and gel filtration
Kind of series: 4-nitrophenolate release, […] nm, initial rates. The format is biochemical. Particulars: 100 mM MOPS-NaOH pH 8.0, 150 mM NaCl, 25 °C.

Series [5] has as its target T4, P86 (uncultured organism, UniProt A0A141FA97).
T4 construct: N-terminal Strep-tag, pASKIBA5plus (EcoRI-NcoI), E. coli BL21(DE3); Strep-Tactin and gel filtration
Kind of series: 4-nitrophenolate release, […] nm, initial rates. Particulars: 100 mM MOPS-NaOH pH 8.0, 150 mM NaCl, 25 °C. The format is biochemical.

Substrate in series [6]: CC(=O)Oc1ccc([N+](=O)[O-])cc1
Kind of series: purified protein, by the assay type. Particulars: 25.0 °C. Also on record: Michaelis-Menten kinetics of substrate hydrolysis by purified enzyme, initial rates by absorbance or fluorescence, plate reader. On the procedure:
(§1) All enzymatic assays were conducted at 25 °C in a final volume of 200 μl, in the activity buffer (100 mM MOPS-NaOH pH 8.0, containing 150 mM NaCl) that was used throughout the experiments, unless otherwise stated. Measurements were performed in 96-well plate format and product formation followed in SpectraMax M5 or 190 microplate readers. Hydrolysis of substrates with fluorescein leaving groups (1d and 2d) was monitored at the following wavelengths: λexcitation=488 nm and λemission=525 nm. A calibration curve (linearly fit to the equation: fluorescence=1.2 × 10^10 M^−1 [fluorescein]) was used to quantify fluorescein release. Hydrolysis of esters 1, 2a, 2b, 3, 4, 5, 6 and acetamide 9 was monitored by measuring absorbance of p-nitrophenolate at 400 nm (ɛ≈17,700 M^−1 cm^−1). Hydrolysis of thioester 7 was measured in the presence of the indicator 5,5'-dithiobis-(2-nitrobenzoic acid) (500 μM); the increase of 2-nitro-5-thiobenzoate was monitored at 412 nm (ɛ≈13,100 M^−1 cm^−1)[39]. Hydrolysis of lactones 8b, 8c, 8d1, 8d2 was measured using a pH-shift assay in 2.5 mM Bicine, 200 mM NaCl, 0.3 mM cresol purple pH 8.3 (ref. [65]). The pH drop was monitored by the decrease in the absorbance of the indicator dye cresol purple at 577 nm (ɛ≈4,000 M^−1 cm^−1). Hydrolysis of lactone 8a was measured at 270 nm in an ultraviolet-transparent 96-well plate. Hydrolysis of β-lactam 10 was measured at 405 nm in phosphate buffer (100 mM, pH 8.0). All kinetic parameters were calculated by fitting initial rates vo to the Michaelis–Menten equations (or, if saturation could not be reached due to solubility limits, to linear correlations) using Kaleidagraph. Example data and details of equations used for fitting are shown in Supplementary Fig. 14. (b) PTE hits. Applying the screening workflow to PTEs (using triester 2d as substrate) led to the isolation of eight unique and novel sequences, mostly originating from unknown microorganisms (Supplementary Table 2). Only one of these genes (p83) was predicted as a potential PTE by Pfam domain recognition (Fig. 3). […]

Substrate in series [7]: O=C1CCc2ccccc2O1
Kind of series: purified protein, by the assay type. On the set-up: Michaelis-Menten kinetics of substrate hydrolysis by purified enzyme, initial rates by absorbance or fluorescence, plate reader. On the procedure:
as §1

T4 sequence (A0A141FA97 entry or part of it): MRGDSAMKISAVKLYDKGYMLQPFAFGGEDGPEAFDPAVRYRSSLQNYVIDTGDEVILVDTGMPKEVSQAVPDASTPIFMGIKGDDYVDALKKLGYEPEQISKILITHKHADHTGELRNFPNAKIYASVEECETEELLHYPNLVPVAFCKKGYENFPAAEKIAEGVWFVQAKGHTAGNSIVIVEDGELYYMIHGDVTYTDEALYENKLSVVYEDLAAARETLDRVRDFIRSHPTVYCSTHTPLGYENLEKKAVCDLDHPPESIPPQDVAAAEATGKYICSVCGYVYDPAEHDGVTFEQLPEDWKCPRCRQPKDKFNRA
T1 sequence (A0A141FA90 entry or part of it): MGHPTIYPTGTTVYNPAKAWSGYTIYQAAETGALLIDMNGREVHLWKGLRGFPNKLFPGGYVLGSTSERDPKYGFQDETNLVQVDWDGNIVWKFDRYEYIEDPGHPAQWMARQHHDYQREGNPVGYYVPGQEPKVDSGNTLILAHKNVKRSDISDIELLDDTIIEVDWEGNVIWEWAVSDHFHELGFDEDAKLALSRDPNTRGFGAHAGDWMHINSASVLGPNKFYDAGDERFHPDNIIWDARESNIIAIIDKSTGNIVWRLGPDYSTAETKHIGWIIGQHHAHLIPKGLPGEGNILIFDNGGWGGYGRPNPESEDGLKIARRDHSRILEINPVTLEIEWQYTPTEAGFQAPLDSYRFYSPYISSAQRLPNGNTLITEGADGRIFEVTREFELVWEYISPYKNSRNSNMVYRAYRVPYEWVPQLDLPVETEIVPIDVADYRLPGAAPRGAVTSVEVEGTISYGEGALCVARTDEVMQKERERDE

Regarding `O=[N+]([O-])c1ccc(OS(=O)(=O)O)cc1` [1a, sulfate ester 1a], the sulfate transfer kinetics result in series [1] is recorded as “P40 was shown to catalyse sulfate transfer from sulfate ester 1a to phenolate”.

As to `CCOP(=O)(OCC)Oc1ccc([N+](=O)[O-])cc1` [2a, paraoxon], the Km in series [2], in series [3], in series [4] and in series [5] was > 5 mM in each case.

B1: P88.2 (uncultured organism) (protein)
chain: MNLTETLPGDELANAMAARGYPAVEPATTRDRGVGPFRRLVLRGARILDGTGAPPVGPYDIVVEGGRIKEVVLVGVPKMPIKPERRPAPGDHEIDCTGKLVTPGFVDAHVHIGTYYHAPSGPMPSADYVYKLWLAHGITTVREMACMNGVGWTLEQKEAAAANRIAAPKIVAHAYFPAVDEFIKTIYTVEQARKWVRAVKERGVDGLKFFGAPPAIMQAALEEANKLGMRSGCHHAQMSVSKVNALRSAQWGLTSTEHFYGIPEAMFIDRAVQAYPVGYDFMDESLRYNSSSQNFIQAAEPGSAKWQETLEKFLELGHSFVPTLAILEANRDLMRARRADWHDEYTHKTLWTYFQPHRGGHCSHWYRWTTTNEVQWKEHFRRWMRFCNDYKNLGGRVCPGSDAGFTFQLYGFCFIRELEQMQEAGFHPLEIFRAATSESAALLGVDHETGTIEPGKCADLLVHRYDPLDDLKYLYGTGAWRLNDETGKTEWHRGIEYTIKDGVIYDPAELLADVRAIVAESFNEGEDTRPRTRR
notes: N-terminal Strep-tag, pASKIBA5plus (EcoRI-NcoI), E. coli BL21(DE3); Strep-Tactin and gel filtration
In the case of B1, the Km in series [6] was 2.9 ± 1.2 mM.

B2: P83 (uncultured organism) (protein)
chain: MQINSVLGPVDTADLGFTLIHEHLLIGWAGWQWDSRWEFDRANAMAKAVDLLQELKALGVSTFVDPCPMDIGRDPEFLAEASQRSGMTIIASTGLYHSEMGIPSYFHAMPEEEIAEIFIHDLTEGMGHTGIKAGIIKCATTAGHVTEQEQKTHGAAARAQVATGAPIITHTDENGPMGLAQLDIFESRGASVSKIAIGHSCGNGDIRYLLSVLERGAWLSFDRFGFGLSASDDVRVASLLGLIGLGYADRLMISHDSVSTFLAKPGGWDPAQEPSLANWKPTHIIQNIIPRLKNAGVSQEVIDTITIDNPRRYFEGSAASGNK
notes: N-terminal Strep-tag, pASKIBA5plus (BsaI), E. coli BL21(DE3); Strep-Tactin and gel filtration
For B2, the Km in series [7] stood at 2.5 ± 0.4 mM.

B3: P91 (uncultured organism) (protein)
chain: MTARKVDYTDGATRCIGEFHWDEGKSGPRPGVVVFPEAFGLNDHAKERARRLADLGFAALAADMHGDAQVFDAASLSSTIQGYYGDRAHWRRRAQAALDALTAQPEVDGSKVAAIGFCFGGATCLELARTGAPLTAIVTFHGGLLPEMAGDAGRIQSSVLVCHGADDPLVQDETMKAVMDEFRRDKVDWQVLYLGNAVHSFTDPLAGSHGIPGLAYDATAEARSWTAMCNLFSELFG
notes: as for B2
On to B3, for which, in series [7] (25.0 °C), the Km was 7.7 ± 2.5 mM.
